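Compound exposure: 48 hours, 5 concentrations, 96-well plates. Here, GI50 denotes the concentration required for 50% inhibition of growth.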 Active and inactive are the calls of the source. No stated cut-off is given here; in the data, active = GI50 up to about 1.1 µM and inactive = higher.
Experiments:
Assay in all cases: NCI-60 cell line screen, 48 h
[1] = test system: MOLT-4
[2] = test system: OVCAR-4
[3] = test system: NCI-H522
[4] = test system: DU-145
[5] = test system: SR
[6] = test system: RPMI-8226
[7] = test system: HOP-92
[8] = test system: SK-MEL-28
[9] = test system: HL-60
[10] = test system: EKVX
[11] = test system: 786-0
[12] = test system: PC-3
[13] = test system: Hs-578T
[14] = test system: SF-295
[15] = test system: SK-MEL-2
[16] = test system: CAKI-1
[17] = test system: HCT-15
[18] = test system: A549
[19] = test system: OVCAR-3
[20] = test system: NCI-H460

Structure (SMILES)	GI50 [1]	GI50 [2]	GI50 [3]	GI50 [4]	GI50 [5]	GI50 [6]	GI50 [7]	GI50 [8]	GI50 [9]	GI50 [10]	GI50 [11]	GI50 [12]	GI50 [13]	GI50 [14]	GI50 [15]	GI50 [16]	GI50 [17] [µM]	GI50 [18]	GI50 [19]	GI50 [20]
CC1=NN(C(=O)CC(=O)Nc2cccc(C)c2)C(=O)C1/N=N\c1ccc(S(=O)(=O)c2ccc(/N=N/C3C(=O)N(C(=O)CC(=O)Nc4cccc(C)c4)N=C3C)cc2)cc1 (stereo not given)	> 100 µM (inactive)	> 100 µM (inactive)	> 100 µM (inactive)	> 100 µM (inactive)	> 100 µM (inactive)	> 100 µM (inactive)	> 100 µM (inactive)	> 100 µM (inactive)	> 100 µM (inactive)	> 100 µM (inactive)	> 100 µM (inactive)	> 100 µM (inactive)	> 100 µM (inactive)	> 100 µM (inactive)	> 100 µM (inactive)	> 100 µM (inactive)	> 100	> 100 µM (inactive)	> 100 µM (inactive)	> 100 µM (inactive)
CC(=O)OCC1OC(O[C@@H]2C[C@H]3C(C)(C)[C@H](OC(C)=O)CC[C@]3(C)[C@H]3CC[C@@]45C[C@H](O)C[C@H](C)[C@@H]4CC=C5[C@@]32C)C(O)C(O)C1O (stereo not given in full)	2.32 µM (inactive)	4.21 µM (inactive)	2.72 µM (inactive)	8.28 µM (inactive)	2.07 µM (inactive)	2.42 µM (inactive)	4.01 µM (inactive)	7.19 µM (inactive)	1.84 µM (inactive)	7.69 µM (inactive)	3.83 µM (inactive)	3.03 µM (inactive)	4.6 µM (inactive)	3.66 µM (inactive)	2.33 µM (inactive)	11.6 µM (inactive)	11.2	4.59 µM (inactive)	3.75 µM (inactive)	3.26 µM (inactive)
CCN(CC)CCOc1ccc(N2Cc3cc(OC)c(OC)cc3C2=O)cc1	> 100 µM (inactive)	> 100 µM (inactive)	> 100 µM (inactive)	> 100 µM (inactive)	> 100 µM (inactive)	> 100 µM (inactive)	> 100 µM (inactive)	> 100 µM (inactive)	> 100 µM (inactive)	> 100 µM (inactive)	> 100 µM (inactive)	> 100 µM (inactive)	> 100 µM (inactive)	> 100 µM (inactive)	> 100 µM (inactive)	> 100 µM (inactive)	> 100	> 100 µM (inactive)	> 100 µM (inactive)	> 100 µM (inactive)
Cc1ccc(O)c(-c2csc(NCN3CCN(CNc4nc(-c5cc(C)ccc5O)cs4)CC3)n2)c1	15.2 µM (inactive)	> 100 µM (inactive)	> 100 µM (inactive)	> 100 µM (inactive)	> 100 µM (inactive)	25.2 µM (inactive)	> 100 µM (inactive)	> 100 µM (inactive)	> 100 µM (inactive)	> 100 µM (inactive)	> 100 µM (inactive)	> 100 µM (inactive)	> 100 µM (inactive)	> 100 µM (inactive)	> 100 µM (inactive)	> 100 µM (inactive)	> 100	> 100 µM (inactive)	> 100 µM (inactive)	> 100 µM (inactive)
COc1ccc(C(C)NNC(=O)c2ccncc2)c(OC)c1 (stereo not given)	> 100 µM (inactive)	> 100 µM (inactive)	> 100 µM (inactive)	> 100 µM (inactive)	> 100 µM (inactive)	> 100 µM (inactive)	> 100 µM (inactive)	> 100 µM (inactive)	> 100 µM (inactive)	> 100 µM (inactive)	> 100 µM (inactive)	> 100 µM (inactive)	> 100 µM (inactive)	> 100 µM (inactive)	> 100 µM (inactive)	> 100 µM (inactive)	> 100	> 100 µM (inactive)	> 100 µM (inactive)	> 100 µM (inactive)
C1=CC2C=CC(C=C1)P2c1ccccc1 (stereo not given)	> 100 µM (inactive)	> 100 µM (inactive)	> 100 µM (inactive)	> 100 µM (inactive)	> 100 µM (inactive)	> 100 µM (inactive)	> 100 µM (inactive)	> 100 µM (inactive)	> 100 µM (inactive)	> 100 µM (inactive)	> 100 µM (inactive)	> 100 µM (inactive)	> 100 µM (inactive)	> 100 µM (inactive)	> 100 µM (inactive)	> 100 µM (inactive)	> 100	> 100 µM (inactive)	> 100 µM (inactive)	> 100 µM (inactive)
O=C1C(N2CCOCC2)=C(Cl)C(=O)c2ncccc21	0.443 µM (active)	1.56 µM (inactive)	1.45 µM (inactive)	> 6.73 µM (inactive)	0.778 µM (active)	1.56 µM (inactive)	1.5 µM (inactive)	2.2 µM (inactive)	0.212 µM (active)	> 10 µM (inactive)	1.84 µM (inactive)	> 9.62 µM (inactive)	3.99 µM (inactive)	> 10 µM (inactive)	1.87 µM (inactive)	> 10 µM (inactive)	2.03	> 10 µM (inactive)	1.81 µM (inactive)	> 6.79 µM (inactive)
C[n+]1cccc2ccc3cccnc3c21	> 100 µM (inactive)	33.8 µM (inactive)	10 µM (inactive)	49.9 µM (inactive)	> 100 µM (inactive)	4.91 µM (inactive)	57.7 µM (inactive)	55.7 µM (inactive)	> 100 µM (inactive)	6.84 µM (inactive)	63.5 µM (inactive)	27.5 µM (inactive)	12.7 µM (inactive)	43.6 µM (inactive)	19.3 µM (inactive)	> 100 µM (inactive)	61.8	5.64 µM (inactive)	26.3 µM (inactive)	23.2 µM (inactive)
Clc1ccc(C(Cc2cccc(Cl)c2)c2c(Cl)nc(N3CCNCC3)nc2Cl)cc1 (stereo not given)	12.2 µM (inactive)	16.5 µM (inactive)	14.8 µM (inactive)	19.7 µM (inactive)	5.38 µM (inactive)	22.3 µM (inactive)	13.9 µM (inactive)	19.5 µM (inactive)	11.1 µM (inactive)	0.128 µM (active)	14.4 µM (inactive)	16.9 µM (inactive)	19.8 µM (inactive)	16.8 µM (inactive)	21.6 µM (inactive)	12.1 µM (inactive)	13.6	16 µM (inactive)	15.8 µM (inactive)	16.7 µM (inactive)
CCO/N=C\c1ccc2oc(-c3ccccc3)cc(=O)c2c1	0.121 µM (active)	5.51 µM (inactive)	0.0247 µM (active)	0.502 µM (active)	< 0.0135 µM (active)	0.215 µM (active)	3.26 µM (inactive)	28.8 µM (inactive)	0.135 µM (active)	3.03 µM (inactive)	0.501 µM (active)	0.19 µM (active)	0.402 µM (active)	0.191 µM (active)	0.127 µM (active)	0.427 µM (active)	0.0475	0.417 µM (active)	0.0778 µM (active)	0.136 µM (active)
Cc1nc(Nc2ccccc2Cl)sc1C(=O)CC(=O)C(=O)Nc1c(Cl)cccc1Cl	24 µM (inactive)	49.1 µM (inactive)	19.3 µM (inactive)	27 µM (inactive)	31.2 µM (inactive)	28.2 µM (inactive)	20.6 µM (inactive)	26.2 µM (inactive)	8.95 µM (inactive)	17.9 µM (inactive)	24.3 µM (inactive)	27.3 µM (inactive)	25.2 µM (inactive)	27.5 µM (inactive)	16.1 µM (inactive)	84.1 µM (inactive)	33.3	24.9 µM (inactive)	17.4 µM (inactive)	34.5 µM (inactive)
CC1(C)OC[C@@H](/C=C\CCO[Si](c2ccccc2)(c2ccccc2)C(C)(C)C)N1C(=O)c1ccccc1	3.13 µM (inactive)	7.76 µM (inactive)	3.61 µM (inactive)	18.8 µM (inactive)	2.79 µM (inactive)	2.86 µM (inactive)	14.4 µM (inactive)	30.3 µM (inactive)	2.51 µM (inactive)	5.75 µM (inactive)	11.6 µM (inactive)	4.07 µM (inactive)	12.5 µM (inactive)	13.1 µM (inactive)	5.24 µM (inactive)	9.4 µM (inactive)	5.13	3.59 µM (inactive)	7.5 µM (inactive)	3.79 µM (inactive)
COc1ccc(C2CCc3c(cnc4nc(N)nc(N)c34)C2)cc1 (stereo not given)	9.48 µM (inactive)	> 100 µM (inactive)	13.6 µM (inactive)	37.4 µM (inactive)	8 µM (inactive)	> 100 µM (inactive)	2.38 µM (inactive)	96.4 µM (inactive)	6.28 µM (inactive)	73.6 µM (inactive)	3.7 µM (inactive)	> 100 µM (inactive)	40.8 µM (inactive)	7.26 µM (inactive)	47.4 µM (inactive)	> 100 µM (inactive)	5.15	6.43 µM (inactive)	62.5 µM (inactive)	4.89 µM (inactive)
O=C(/C(=C/c1cccs1)c1ccccc1)c1ccccc1	82.4 µM (inactive)	35.2 µM (inactive)	53.7 µM (inactive)	> 100 µM (inactive)	34.3 µM (inactive)	> 100 µM (inactive)	> 100 µM (inactive)	> 100 µM (inactive)	47.4 µM (inactive)	> 100 µM (inactive)	26.2 µM (inactive)	25.6 µM (inactive)	> 100 µM (inactive)	> 100 µM (inactive)	40.2 µM (inactive)	> 100 µM (inactive)	> 100	54.2 µM (inactive)	> 100 µM (inactive)	> 100 µM (inactive)
